This note sets out measurements from article PMC4414715 (Chemico-biological interactions, 2014).

Assay [1] deals with T1, ALDH1A2 (Homo sapiens, UniProt O94788).
T1 sequence (O94788 1-518): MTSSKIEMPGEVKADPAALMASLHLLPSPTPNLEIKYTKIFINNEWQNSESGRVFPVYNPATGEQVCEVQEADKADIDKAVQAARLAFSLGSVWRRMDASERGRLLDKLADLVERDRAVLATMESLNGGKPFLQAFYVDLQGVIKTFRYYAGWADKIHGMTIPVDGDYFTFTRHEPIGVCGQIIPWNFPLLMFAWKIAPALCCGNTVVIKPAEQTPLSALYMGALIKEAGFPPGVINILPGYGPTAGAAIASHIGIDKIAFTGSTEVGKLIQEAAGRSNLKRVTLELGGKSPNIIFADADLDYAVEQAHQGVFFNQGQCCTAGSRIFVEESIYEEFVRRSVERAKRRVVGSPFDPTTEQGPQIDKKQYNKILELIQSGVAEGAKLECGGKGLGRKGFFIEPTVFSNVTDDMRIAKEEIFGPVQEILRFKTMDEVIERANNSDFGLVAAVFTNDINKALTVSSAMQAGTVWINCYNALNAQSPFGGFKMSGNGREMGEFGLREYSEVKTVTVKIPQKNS
The assay can be described thus: DEAB inhibition and IC50 determination. It counts as biochemical.

Assay [2] deals with T2, ALDH1A3 (Homo sapiens, UniProt P47895).
T2 sequence (P47895 1-512): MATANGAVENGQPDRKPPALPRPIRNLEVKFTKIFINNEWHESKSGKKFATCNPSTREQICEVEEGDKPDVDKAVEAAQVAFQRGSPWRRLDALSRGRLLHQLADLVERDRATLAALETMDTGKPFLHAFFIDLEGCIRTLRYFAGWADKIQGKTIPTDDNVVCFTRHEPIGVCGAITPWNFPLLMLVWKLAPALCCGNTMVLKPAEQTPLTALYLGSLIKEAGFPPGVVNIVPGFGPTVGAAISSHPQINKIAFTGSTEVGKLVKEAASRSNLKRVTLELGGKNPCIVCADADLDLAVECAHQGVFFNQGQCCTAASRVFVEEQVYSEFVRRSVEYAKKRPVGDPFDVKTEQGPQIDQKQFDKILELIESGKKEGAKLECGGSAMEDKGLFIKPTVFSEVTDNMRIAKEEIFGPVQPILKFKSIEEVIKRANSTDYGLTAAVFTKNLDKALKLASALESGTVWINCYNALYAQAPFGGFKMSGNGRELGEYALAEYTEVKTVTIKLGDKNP
The assay can be described thus: DEAB inhibition and IC50 determination. It counts as biochemical.

Assay [3] addresses T3, ALDH1B1 (Homo sapiens, UniProt P30837).
T3 sequence (P30837 18-517): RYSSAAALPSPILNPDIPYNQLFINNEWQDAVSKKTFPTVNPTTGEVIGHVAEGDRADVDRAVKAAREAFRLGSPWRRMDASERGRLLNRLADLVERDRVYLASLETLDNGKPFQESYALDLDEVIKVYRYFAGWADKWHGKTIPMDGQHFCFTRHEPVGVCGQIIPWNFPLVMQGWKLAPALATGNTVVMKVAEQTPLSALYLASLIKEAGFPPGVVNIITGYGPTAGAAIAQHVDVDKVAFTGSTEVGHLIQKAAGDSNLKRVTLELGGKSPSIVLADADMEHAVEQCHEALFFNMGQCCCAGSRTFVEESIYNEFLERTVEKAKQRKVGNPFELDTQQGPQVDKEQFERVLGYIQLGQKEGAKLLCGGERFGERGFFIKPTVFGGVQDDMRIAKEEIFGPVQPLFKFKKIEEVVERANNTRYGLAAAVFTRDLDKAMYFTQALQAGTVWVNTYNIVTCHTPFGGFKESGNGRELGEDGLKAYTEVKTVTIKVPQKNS
Nature of the assay: DEAB inhibition and IC50 determination. Type of assay: biochemical.

In assay [4] the target is T1, ALDH1A2. The assay can be described thus: Wavelength scans to monitor DEAB oxidation. Type of assay: biochemical. As to conditions: DEAB as substrate of ALDH1A2.
The target in assay [5] is T2, ALDH1A3. Nature of the assay: Wavelength scans to monitor DEAB oxidation. As to conditions: DEAB as substrate of ALDH1A3. It counts as biochemical.
The target of assay [6] is T3, ALDH1B1. Nature of the assay: Wavelength scans to monitor DEAB oxidation. It counts as biochemical. As to conditions: DEAB as substrate of ALDH1B1.
Assay [7] addresses T4, ALDH1L1 (Rattus norvegicus, UniProt P28037).
T4 sequence (P28037 417-902 limits assumed): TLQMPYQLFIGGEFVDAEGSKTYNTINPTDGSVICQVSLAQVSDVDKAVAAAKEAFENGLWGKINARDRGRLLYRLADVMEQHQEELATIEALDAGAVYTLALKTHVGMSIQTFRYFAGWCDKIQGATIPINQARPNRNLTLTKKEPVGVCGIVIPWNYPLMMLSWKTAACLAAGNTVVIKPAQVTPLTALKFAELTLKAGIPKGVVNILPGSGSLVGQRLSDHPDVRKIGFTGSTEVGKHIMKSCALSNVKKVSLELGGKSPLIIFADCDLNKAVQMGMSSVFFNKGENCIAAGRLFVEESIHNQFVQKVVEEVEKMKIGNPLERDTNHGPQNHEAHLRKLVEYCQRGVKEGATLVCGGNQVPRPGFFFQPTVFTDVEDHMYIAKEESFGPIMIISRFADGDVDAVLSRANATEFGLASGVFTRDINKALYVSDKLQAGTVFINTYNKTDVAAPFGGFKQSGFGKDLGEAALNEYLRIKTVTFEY
Nature of the assay: Wavelength scans to monitor DEAB oxidation. Conditions: DEAB as substrate of ALDH1L1. It counts as biochemical.

In assay [8] the target is T5, ALDH3A1 (Homo sapiens, UniProt P30838).
T5 sequence (P30838 1-453): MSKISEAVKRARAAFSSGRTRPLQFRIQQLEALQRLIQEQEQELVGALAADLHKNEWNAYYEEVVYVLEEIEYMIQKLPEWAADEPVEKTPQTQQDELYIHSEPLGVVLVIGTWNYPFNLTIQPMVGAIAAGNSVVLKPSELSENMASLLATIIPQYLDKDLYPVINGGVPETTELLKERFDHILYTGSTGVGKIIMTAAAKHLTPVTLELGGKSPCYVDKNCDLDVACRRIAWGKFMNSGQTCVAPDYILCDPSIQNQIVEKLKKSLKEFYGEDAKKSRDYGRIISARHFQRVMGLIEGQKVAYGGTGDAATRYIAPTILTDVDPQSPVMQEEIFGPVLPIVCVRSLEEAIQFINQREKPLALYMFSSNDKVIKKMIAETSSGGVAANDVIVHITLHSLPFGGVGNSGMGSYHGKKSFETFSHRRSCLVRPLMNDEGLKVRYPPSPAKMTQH
Nature of the assay: Wavelength scans to monitor DEAB oxidation. Type of assay: biochemical. Conditions: DEAB as substrate of ALDH3A1.

For assay [9], the target named is T6, ALDH4A1 (Homo sapiens, UniProt P30038).
T6 sequence (P30038 25-563): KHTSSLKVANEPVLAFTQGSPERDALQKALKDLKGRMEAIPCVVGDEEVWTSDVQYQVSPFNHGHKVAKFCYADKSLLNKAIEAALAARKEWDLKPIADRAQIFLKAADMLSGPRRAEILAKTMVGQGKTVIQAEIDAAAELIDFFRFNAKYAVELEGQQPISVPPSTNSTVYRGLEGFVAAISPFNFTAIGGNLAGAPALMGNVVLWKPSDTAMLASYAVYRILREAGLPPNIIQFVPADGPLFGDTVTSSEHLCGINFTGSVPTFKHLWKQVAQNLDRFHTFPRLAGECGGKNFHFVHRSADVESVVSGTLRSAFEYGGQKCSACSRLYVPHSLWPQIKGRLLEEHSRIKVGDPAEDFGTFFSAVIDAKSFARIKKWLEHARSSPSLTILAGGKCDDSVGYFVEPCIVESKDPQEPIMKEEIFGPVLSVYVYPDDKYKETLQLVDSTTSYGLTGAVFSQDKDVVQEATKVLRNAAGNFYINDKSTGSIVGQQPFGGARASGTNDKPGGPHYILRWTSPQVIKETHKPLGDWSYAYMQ
The assay can be described thus: Wavelength scans to monitor DEAB oxidation. Conditions: DEAB as substrate of ALDH4A1. Type of assay: biochemical.

The target in assay [10] is T7, ALDH5A1 (Homo sapiens, UniProt P51649).
T7 sequence (P51649 48-535): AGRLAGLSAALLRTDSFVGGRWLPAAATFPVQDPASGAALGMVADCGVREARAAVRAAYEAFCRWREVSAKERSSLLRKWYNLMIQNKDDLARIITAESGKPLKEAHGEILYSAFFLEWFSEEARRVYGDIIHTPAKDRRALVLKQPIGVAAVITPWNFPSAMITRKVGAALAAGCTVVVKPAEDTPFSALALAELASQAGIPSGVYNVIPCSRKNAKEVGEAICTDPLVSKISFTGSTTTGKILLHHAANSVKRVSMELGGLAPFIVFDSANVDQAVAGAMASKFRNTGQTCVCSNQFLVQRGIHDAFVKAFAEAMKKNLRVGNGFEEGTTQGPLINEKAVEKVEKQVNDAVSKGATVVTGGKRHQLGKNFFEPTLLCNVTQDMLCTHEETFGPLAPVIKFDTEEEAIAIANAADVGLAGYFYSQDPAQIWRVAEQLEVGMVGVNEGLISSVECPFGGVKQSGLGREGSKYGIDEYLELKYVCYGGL
The assay can be described thus: Wavelength scans to monitor DEAB oxidation. It counts as biochemical. Conditions: DEAB as substrate of ALDH5A1.

For assay [11], the target named is T1, ALDH1A2. The assay can be described thus: Kinetics of irreversible. It counts as biochemical.
The target in assay [12] is T1, ALDH1A2. The assay can be described thus: Effect of dialysis on DEAB-induced inhibition. Type of assay: biochemical.
In assay [13] the target is T1, ALDH1A2. The assay can be described thus: Q-TOF mass spectrometry of enzyme modification by DEAB. It counts as binding. Conditions: 5.0 μM ALDH1A2, 10 μM DEAB, without NAD+, 1 h.
The target in assay [14] is T5, ALDH3A1. Nature of the assay: Enzyme kinetics with DEAB as a substrate. As to conditions: ALDH3A1 oxidation of the substrate.
In assay [15] the target is T4, ALDH1L1. Nature of the assay: DEAB inhibition and IC50 determination.
The target in assay [16] is T6, ALDH4A1. The assay can be described thus: DEAB inhibition and IC50 determination.
Assay [17] has as its target T7, ALDH5A1. Nature of the assay: DEAB inhibition and IC50 determination.

Molecules are shown by their SMILES.

As a reminder, the IC50 is the concentration that gives 50% inhibition. One may read the Km as the substrate concentration at which the rate is half of its maximum.

As to `CCN(CC)c1ccc(C=O)cc1` [DEAB], the IC50 against ALDH1A2 [1] was 1.2 ± 0.1 µM; against ALDH1A3 [2], 3 ± 0.3 µM; at ALDH1B1 [3], 1.2 ± 0.1 µM; at ALDH1L1 [15], greater than 20 µM; on ALDH4A1 [16] it was greater than 20 µM; against ALDH5A1 [17] it was 13 ± 0.5 µM. Besides, the Substrate result on ALDH1A2 [4] was “No”; on ALDH1A3 [5], “Yes (slow)”; at ALDH1B1 [6], “Yes (slow)”; at ALDH1L1 [7], “No”; at ALDH3A1 [8], “Yes”; on ALDH4A1 [9], “No”. The Substrate result on ALDH5A1 [10] was “Yes (slow)”. The Mode of inhibition result at ALDH1A2 [11] is reported as “Covalent inhibitor”. For the same compound, on ALDH1A2 [12] (0.5 h, pH 7.5, read-out: activity recovered after dialysis), the activity at 100 µM came to 75%. The “recovery of enzymatic activity after dialysis” value at ALDH1A2 [12] (ALDH1A2, pre-incubated with DEAB and NAD+, dialyzed 4 h) is listed as “neither the ALDH2 nor the ALDH1A2 samples regained enzymatic activity”. The “fraction of enzyme with DEAB bound” value at ALDH1A2 [13] is “approximately one-third”. Moreover, on ALDH3A1 [14], the Km is 5.6 ± 0.7 µM.
